Measured values taken from patent US7531573B2 (priority 1994, dated 2009).
Where two headings read alike, the source gives them in different places.

Assays:
[1] = test system: NIH 3T3 mouse fibroblast cells; experiment: Mitogen-induced cell proliferation; assay type: cell-based; conditions: for inhibition at 10 µM: NIH3T3, read-out: Mitogen-induced cell proliferation % Inhibition
Excerpt: Other cell lines, e.g., cancer cells, endothelial cells and fibroblasts, as well as many others, may be used in the cell proliferation assay. Selection of a particular cell line will depend in part on the desired application, and is well within the capabilities of an ordinarily skilled artisan.

Gardos channel = Gardos channel (Homo sapiens, UniProt O15554); assay type: binding
red cell Gardos channel = red cell Gardos channel (Homo sapiens, UniProt O15554); experiment: cell-based
Description: CLT and metabolite B (Compound 6) were incubated with a red cell suspension at 20% Hct.

[2] = target: T1, red cell calcium-activated potassium transport (Homo sapiens, UniProt O15554); experiment: Red cell Ca2+-activated 86Rb influx inhibition after oral Clotrimazole; assay type: in vivo; conditions: Subject B
T1 construct: endogenous in cells; host or cells: red cells of two normal human subjects

[3] = target: T1, red cell calcium-activated potassium transport; experiment: as above; assay type: in vivo; conditions: for Ca2+-activated 86Rb influx inhibition %: Subject A
Description: Two subjects, […] (A, 72 kg) and […] (D, 56 kg), ingested one 500 mg CLT tablet every twelve hours for six days, corresponding to a daily CLT dose of 14 and 18 mg/kg, respectively.

[4] = test system: MM-RU human melanoma cells; experiment: SCID mice inoculated with MM-RU human melanoma cells, lung metastases; assay type: in vivo; conditions: 120 mg/Kg subcutaneous daily for 10 weeks
Description: Mice with severe combined immunodeficiency disease (SCID) were inoculated via the lateral tail vein with approximately 2.5×10^6 MM-RU human melanoma cells, a cell line that produces metastases only in the lungs (Byers et al., 1993, Melanoma Res. 3:247-253). Starting on the day of inoculation, subcutaneous injections of either vehicle (control group, n=9) or CLT (120 mg/Kg; treatment group, n=10) was administered daily for a period of 10 weeks. At the end of the 10 week treatment period, the mice were sacrificed and examined for metastases.

[5] = target: Gardos channel of erythrocytes (Homo sapiens, UniProt O15554); experiment: cell-based
clinical = assay type: in vivo; conditions: human, plasma, read-out: Levels Plasma; for concentration at 6 day of CLT dosing: CLT day 6; for concentration at 10 day (wash-out): Wash-out day 10; for concentration at 13 day (wash-out): Wash-out day 13; for concentration at 20 day (wash-out): Wash-out day 20
[6] = test system: colon adenocarcinoma cells (HT29); experiment: [3H]thymidine uptake in HT29 cells; assay type: cell-based, human; conditions: 10 μM
Description: (§1) Human melanoma cells (MM-RU) and colon adenocarcinoma cells (HT29) were cultured in the presence and absence of 10 μM CLT metabolite B (Compound 6) as described in Benzaquen et al., 1995, Nature Medicine 1:534-540 and the level of DNA synthesis determined by measuring [^3H]thymidine uptake.

[7] = test system: hepatic microsomal cytochrome P450; conditions: rats; Matsuura et al., 1991; cited from earlier work
[8] = test system: Human melanoma cells (MM-RU); experiment: [3H]thymidine uptake in MM-RU cells; assay type: cell-based; conditions: 10 μM
Description: as §1
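Throughout, for Levels Plasma: oral tablet given every 12 h for six days, about 14 mg/kg per day for this subject, with levels then followed in plasma.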

T1 sequence (O15554 whole entry): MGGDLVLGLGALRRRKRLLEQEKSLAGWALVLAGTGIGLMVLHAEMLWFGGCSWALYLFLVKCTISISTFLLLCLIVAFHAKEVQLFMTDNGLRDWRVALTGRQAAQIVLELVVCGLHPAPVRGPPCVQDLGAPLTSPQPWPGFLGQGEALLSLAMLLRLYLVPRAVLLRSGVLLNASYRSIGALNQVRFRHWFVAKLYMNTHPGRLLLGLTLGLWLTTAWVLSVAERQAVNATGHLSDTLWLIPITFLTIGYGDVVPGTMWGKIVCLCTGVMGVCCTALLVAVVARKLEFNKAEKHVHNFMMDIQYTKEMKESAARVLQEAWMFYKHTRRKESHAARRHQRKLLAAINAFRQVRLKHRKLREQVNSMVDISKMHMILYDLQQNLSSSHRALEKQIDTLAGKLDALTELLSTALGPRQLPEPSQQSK
Gardos channel, sequence (O15554 whole entry): as above
red cell Gardos channel, sequence (O15554 whole entry): as above
Gardos channel of erythrocytes, sequence (O15554 whole entry): as above

Structure (SMILES): Clc1ccccc1C(c1ccccc1)(c1ccccc1)n1ccnc1 [Clotrimazole, reference compound]
- inhibition at 10 µM [1]: 93%
- 125I-ChTX Binding (Gardos channel): 1.000
- Displacement (%) (Gardos channel): 41.6%
- concentration at which inhibition of K+ transport reached maximal levels (red cell Gardos channel): 5 µM
- % control (red cell Gardos channel; 1 nM): 100.3%
- flux (red cell Gardos channel; 1 nM): 1.155
- inhibition at 0.001 µM (red cell Gardos channel; 1 nM): -0.3%
- % control (red cell Gardos channel; 10 nM): 97.6%
- flux (red cell Gardos channel; 10 nM): 1.124
- inhibition at 0.01 µM (red cell Gardos channel; 10 nM): 2.4%
- % control (red cell Gardos channel; 100 nM): 77.4%
- flux (red cell Gardos channel; 100 nM): 0.892
- inhibition at 0.1 µM (red cell Gardos channel; 100 nM): 22.6%
- % control (red cell Gardos channel; 500 nM): 45.0%
- flux (red cell Gardos channel; 500 nM): 0.518
- inhibition at 0.5 µM (red cell Gardos channel; 500 nM): > 50%
- % control (red cell Gardos channel; 1 μM): 21.5%
- flux (red cell Gardos channel; 1 μM): 0.248
- inhibition at 1 µM (red cell Gardos channel; 1 μM): 78.5%
- % control (red cell Gardos channel; 5 μM): 3.3%
- flux (red cell Gardos channel; 5 μM): 0.038
- inhibition at 5 µM (red cell Gardos channel; 5 μM): 96.7%
- % control (red cell Gardos channel; 10 μM): 3.7%
- flux (red cell Gardos channel; 10 μM): 0.043
- inhibition at 10 µM (red cell Gardos channel; 10 μM): 96.3%
- Ca2+-activated 86Rb influx inhibition % ([2]; CLT day 3): 80 ± 28%
- Ca2+-activated 86Rb influx inhibition % ([2]; CLT day 6): 83 ± 7%
- Ca2+-activated 86Rb influx inhibition % ([2]; Wash-out day 8): 79 ± 21%
- Ca2+-activated 86Rb influx inhibition % ([2]; Wash-out day 10): 82 ± 4%
- Ca2+-activated 86Rb influx inhibition % ([2]; Wash-out day 13): 37 ± 30%
- Ca2+-activated 86Rb influx inhibition % ([2]; Wash-out day 20): 0 ± 13%
- Ca2+-activated 86Rb influx inhibition % ([3]; CLT day 3): 74 ± 5%
- Ca2+-activated 86Rb influx inhibition % ([3]; CLT day 6): 73 ± 4%
- Ca2+-activated 86Rb influx inhibition % ([3]; Wash-out day 6): 71 ± 7%
- Ca2+-activated 86Rb influx inhibition % ([3]; Wash-out day 10): 75 ± 11%
- Ca2+-activated 86Rb influx inhibition % ([3]; Wash-out day 13): 58 ± 9%
- Ca2+-activated 86Rb influx inhibition % ([3]; Wash-out day 20): 0 ± 10%
- persistence of inhibition of calcium-activated potassium transport after the drugs were discontinued ([3]; two subjects, oral CLT for six days): at least 7 days
- number of microscopic metastases ([4]; SCID mice): 7±2
- number of pleural metastases ([4]; SCID mice): 2±1
- systemic metastatic disease or toxicity ([4]; SCID mice): did not show any evidence of systemic metastatic disease or toxicity
- weight gain ([4]; SCID mice): gained weight in comparable amounts
- treated animals free of macroscopic metastases ([4]; n=10): half
- treated animals without evidence of microscopic metastases ([4]; n=10): two

Structure (SMILES): OC(c1ccccc1)(c1ccccc1)c1ccccc1Cl [Compound 6, 2-chlorophenyl-diphenylmethanol]
- inhibition at 10 µM [1]: 31%
- IC50 ([1]; NIH3T3, read-out: Mitogen-induced cell proliferation IC50): 2100 nM
- IC50 [5]: 961 nM
- inhibition at 10 µM ([5]; read-out: Gardos Channel % Inhibition): 98%
- 125I-ChTX Binding (Gardos channel; 1 nM, red cells): 1.403
- 125I-ChTX Binding (Gardos channel; 10 nM, red cells): 1.399
- 125I-ChTX Binding (Gardos channel; 100 nM, red cells): 1.239
- Displacement (%) (Gardos channel; 100 nM, red cells): 6.0%
- 125I-ChTX Binding (Gardos channel; 500 nM, red cells): 1.134
- Displacement (%) (Gardos channel; 500 nM, red cells): 21.6%
- 125I-ChTX Binding (Gardos channel; 1 μM, red cells): 1.327
- 125I-ChTX Binding (Gardos channel; 5 μM, red cells): 1.016
- Displacement (%) (Gardos channel; 5 μM, red cells): 39.2%
- 125I-ChTX Binding (Gardos channel; 10 μM, red cells): 0.790
- Displacement (%) (Gardos channel; 10 μM, red cells): 72.9%
- Displacement of 125I-ChTX binding (in words) (Gardos channel; red cells): specifically displaces
- concentration at 6 day of CLT dosing (clinical; oral, 500 mg, Subject A): 1100 nM
- concentration at 6 day (wash-out) (clinical; oral, 500 mg, Subject A, Wash-out day 6): < 100 nM
- concentration at 10 day (wash-out) (clinical; oral, 500 mg, Subject A): < 100 nM
- concentration at 13 day (wash-out) (clinical; oral, 500 mg, Subject A): 0 nM
- concentration at 20 day (wash-out) (clinical; oral, 500 mg, Subject A): 0 nM
- concentration at 3 day of CLT dosing (clinical; oral, 500 mg, Subject B, CLT day 3): 800 nM
- concentration at 6 day of CLT dosing (clinical; oral, 500 mg, Subject B): 1350 nM
- concentration at 8 day (wash-out) (clinical; oral, 500 mg, Subject B, Wash-out day 8): < 100 nM
- concentration at 10 day (wash-out) (clinical; oral, 500 mg, Subject B): < 100 nM
- concentration at 13 day (wash-out) (clinical; oral, 500 mg, Subject B): 0 nM
- concentration at 20 day (wash-out) (clinical; oral, 500 mg, Subject B): 0 nM
- concentration at 3 day of CLT dosing (clinical; Subject A, CLT day 3, oral CLT 500 mg every twelve hours): 1100 nM
- IC50 (red cell Gardos channel): 720 ± 190 nM
- IC50 for inhibition of K+ transport relative to IC50 for displacement of 125I-ChTX (red cell Gardos channel): two to three fold lower
- concentration at which inhibition of K+ transport reached maximal levels (red cell Gardos channel): 10 µM
- % control (red cell Gardos channel; 1 nM): 125.3%
- flux (red cell Gardos channel; 1 nM): 1.444
- inhibition at 0.001 µM (red cell Gardos channel; 1 nM): -25.3%
- % control (red cell Gardos channel; 10 nM): 96.8%
- flux (red cell Gardos channel; 10 nM): 1.115
- inhibition at 0.01 µM (red cell Gardos channel; 10 nM): 3.2%
- % control (red cell Gardos channel; 100 nM): 82.6%
- flux (red cell Gardos channel; 100 nM): 0.952
- inhibition at 0.1 µM (red cell Gardos channel; 100 nM): 17.4%
- % control (red cell Gardos channel; 500 nM): 62.2%
- flux (red cell Gardos channel; 500 nM): 0.717
- inhibition at 0.5 µM (red cell Gardos channel; 500 nM): 37.8%
- % control (red cell Gardos channel; 1 μM): 37.9%
- flux (red cell Gardos channel; 1 μM): 0.437
- inhibition at 1 µM (red cell Gardos channel; 1 μM): > 50%
- % control (red cell Gardos channel; 5 μM): 21.7%
- flux (red cell Gardos channel; 5 μM): 0.25
- inhibition at 5 µM (red cell Gardos channel; 5 μM): 78.3%
- % control (red cell Gardos channel; 10 μM): 9.8%
- flux (red cell Gardos channel; 10 μM): 0.113
- inhibition at 10 µM (red cell Gardos channel; 10 μM): 90.2%
- inhibition of [3H]thymidine uptake versus controls [6]: about 50%
- induction of hepatic microsomal cytochrome P450 [7]: does not induce
- inhibition of [3H]thymidine uptake versus controls [8]: about 60%
- melting point: 92 to 93.5 °C
